Each structure is given as a SMILES string.

Results on eight compounds are retold here after patent publication US5441983A, “Treatment of infection by enveloped virus with calix(N)arene compounds” (Genelabs Incorporated, priority 1992, dated 1995).

The subject of assay [1] is HIV-RF-II. Description: Inhibition of syncytia formation, HIV-RF-II. Particulars: for EC100: Human immunodeficiency virus 1, 18 h, read-out: HIV-RF-II ED100, complete inhibition of syncytia formation.
Procedure: Briefly, cells chronically infected with HTLV-IIIB or RF-II HIV strains were incubated in the presence of serial dilutions of the selected KY compound, then further cocultured with indicator cells. The extent of syncytia formation was scored under phase microscopy.
Representative calix(n)arene compounds from Table 2 were tested for inhibition of cytopathic effects in cells infected with one of two HTLV-III strains, HTLV-IIIB and RF-II strains, as described in Example 12, and in the subsection above.
Human CD4^+ indicator cells (VB) and chronically infected H9 cells were maintained in RPMI-1640 medium supplemented with 5% fetal calf serum, 100 Units of penicillin per ml and 100 μg of streptomycin per ml at 37° C. in a humidified incubator containing 7% CO2.
For the fusion assay, serial dilutions between 1:2 and 1:2^8 of a selected KY compound, 1 mg/ml in PBS were made in a 96 well round bottom plate. The diluted KY compound was transferred to a 96 well flat-bottom plate. To each well was added 25 μg chronically infected H9 cells (at 2×10^6, cells/ml), or cells chronically infected with RF-II strain HIV, followed by incubation at 37° C. for 45 minutes. To each well was then added 25 μl VB cells (about 5×10^4 cells), and the cells and virus isolates were cocultured for 18 hours in a humid 5% CO2 atmosphere.
Assay [2] concerns HIV-HXB. Description: Inhibition of syncytia formation, HIV-HXB (HTLV-IIIB). The conditions noted are these: for EC100: Human immunodeficiency virus 1, 18 h, read-out: HIV-HXB ED100, complete inhibition of syncytia formation.
For assay [3], the system named is HSV-1. Description: Inactivation of purified HSV-1 by compound, plaque number after serial dilution. The conditions noted are these: 10 μg/ml, duplicate.
Procedure: In a third study, purified HSV-1 virus suspensions were incubated with KY-1 or the sodium salt thereof, or a control solution for 1 hour, then serially diluted to drug concentrations between 10^1 to 10^-4 μg/ml as described in Example 16. The "X" symbol in the table indicates plaques too numerous to count.
Purified HSV-1 was suspended in RPMI-1640 medium (Gibco Laboratories) containing 2% FCS, penicillin and streptomycin. […] The suspensions were incubated for 1 hour at 37° C., then diluted serially at 10 fold dilutions to final drug concentrations of 10, 10^0, 10^-1, 10^-2, 10^-3 and 10^-4 μg/ml drug concentrations The serially diluted particles were then added to Vero cells for two hours, as in Example 6, and the cells examined for plaques 48 hours later.
[4] abbreviates: complete inhibition of syncytia formation.

Take `O=C(O)CCCCCCC(=O)Oc1c2c(S(=O)(=O)O)cc3cc(S(=O)(=O)O)c(c(OC(=O)CCCCCCC(=O)O)c13)Cc1c(S(=O)(=O)O)cc3cc(S(=O)(=O)O)c(c(OC(=O)CCCCCCC(=O)O)c3c1OC(=O)CCCCCCC(=O)O)Cc1c(S(=O)(=O)O)cc3cc(S(=O)(=O)O)c(c(OC(=O)CCCCCCC(=O)O)c3c1OC(=O)CCCCCCC(=O)O)Cc1c(S(=O)(=O)O)cc3cc(S(=O)(=O)O)c(c(OC(=O)CCCCCCC(=O)O)c3c1OC(=O)CCCCCCC(=O)O)C2` [KY-294]: the EC100 in assay [1] and in assay [2] was 16 µg/mL throughout.
Take `CCC(=O)Oc1c2c(S(=O)(=O)O)cc3cc(S(=O)(=O)O)c(c(OC(=O)CC)c13)Cc1c(S(=O)(=O)O)cc3cc(S(=O)(=O)O)c(c(OC(=O)CC)c3c1OC(=O)CC)Cc1c(S(=O)(=O)O)cc3cc(S(=O)(=O)O)c(c(OC(=O)CC)c3c1OC(=O)CC)Cc1c(S(=O)(=O)O)cc3cc(S(=O)(=O)O)c(c(OC(=O)CC)c3c1OC(=O)CC)C2` [KY-276]: the EC100 is 32 µg/mL in assay [1] and 16 µg/mL in assay [2].
Regarding `CCCC(=O)Oc1c2c(S(=O)(=O)O)cc3cc(S(=O)(=O)O)c(c(OC(=O)CCC)c13)Cc1c(S(=O)(=O)O)cc3cc(S(=O)(=O)O)c(c(OC(=O)CCC)c3c1OC(=O)CCC)Cc1c(S(=O)(=O)O)cc3cc(S(=O)(=O)O)c(c(OC(=O)CCC)c3c1OC(=O)CCC)Cc1c(S(=O)(=O)O)cc3cc(S(=O)(=O)O)c(c(OC(=O)CCC)c3c1OC(=O)CCC)C2` [KY-288], the “HIV-RF-II ED100” value in assay [1] (setting [4]) was 16. Moreover, the “HIV-HXB ED100” value in assay [2] (setting [4]) came to 8.
Regarding `CC(=O)Oc1c2c(S(=O)(=O)O)cc3cc(S(=O)(=O)O)c(c(OC(C)=O)c13)Cc1c(S(=O)(=O)O)cc3cc(S(=O)(=O)O)c(c(OC(C)=O)c3c1OC(C)=O)Cc1c(S(=O)(=O)O)cc3cc(S(=O)(=O)O)c(c(OC(C)=O)c3c1OC(C)=O)Cc1c(S(=O)(=O)O)cc3cc(S(=O)(=O)O)c(c(OC(C)=O)c3c1OC(C)=O)C2` [KY-270], the EC100 in assay [1] was 32 µg/mL; in assay [2], 16 µg/mL.
On to `O=S(=O)(O)c1c2c(O)c3c(O)c(c(S(=O)(=O)O)c(Br)c3c1Br)C(C(Br)CBr)c1c(S(=O)(=O)O)c(Br)c3c(Br)c(S(=O)(=O)O)c(c(O)c3c1O)C(C(Br)CBr)c1c(S(=O)(=O)O)c(Br)c3c(Br)c(S(=O)(=O)O)c(c(O)c3c1O)C(C(Br)CBr)c1c(S(=O)(=O)O)c(Br)c3c(Br)c(S(=O)(=O)O)c(c(O)c3c1O)C2C(Br)CBr` (centres unmarked) [KY-193], for which the EC100 in assay [1] turned out to be 500 µg/mL; in assay [2], 63 µg/mL.
The corresponding values for `O=S(=O)(Nc1ccccc1)c1cc2cc(S(=O)(=O)Nc3ccccc3)c3c(O)c2c(O)c1Cc1c(S(=O)(=O)Nc2ccccc2)cc2cc(S(=O)(=O)Nc4ccccc4)c(c(O)c2c1O)Cc1c(S(=O)(=O)Nc2ccccc2)cc2cc(S(=O)(=O)Nc4ccccc4)c(c(O)c2c1O)Cc1c(S(=O)(=O)Nc2ccccc2)cc2cc(S(=O)(=O)Nc4ccccc4)c(c(O)c2c1O)C3` [KY-176] are 250 µg/mL and 125 µg/mL.
Turning to `O=S(=O)(O)c1cc2cc(S(=O)(=O)O)c3c(O)c2c(O)c1Cc1c(S(=O)(=O)O)cc2cc(S(=O)(=O)O)c(c(O)c2c1O)Cc1c(S(=O)(=O)O)cc2cc(S(=O)(=O)O)c(c(O)c2c1O)Cc1c(S(=O)(=O)O)cc2cc(S(=O)(=O)O)c(c(O)c2c1O)C3` [KY 217], in assay [3] (0.3 pfu/cell), the “Plaque number, dilution 1” value was 2,8 and the “Plaque number, dilution 10^1” value was 3,3. Besides, in assay [3] (3 pfu/cell), the “Plaque number, dilution 1” value was “X,X”; the “Plaque number, dilution 10^1” value was “X,X”; the “Plaque number, dilution 10^2” value is reported as 6,0; the “Plaque number, dilution 10^3” value is 5,0.
Turning to `O=C(O)CCCCCOc1c2c(S(=O)(=O)O)cc3cc(S(=O)(=O)O)c(c(OCCCCCC(=O)O)c13)Cc1c(S(=O)(=O)O)cc3cc(S(=O)(=O)O)c(c(OCCCCCC(=O)O)c3c1OCCCCCC(=O)O)Cc1c(S(=O)(=O)O)cc3cc(S(=O)(=O)O)c(c(OCCCCCC(=O)O)c3c1OCCCCCC(=O)O)Cc1c(S(=O)(=O)O)cc3cc(S(=O)(=O)O)c(c(OCCCCCC(=O)O)c3c1OCCCCCC(=O)O)C2` [KY-307], the figures for the EC100 in assay [1] and in assay [2] were 32 µg/mL and 8 µg/mL, respectively.
